Values of other authors as cited in US9433208B2, “Crop oil concentrate adjuvants containing amine surfactants” (Huntsman Petrochemical LLC, priority 2004, dated 2016).
Read-outs that look alike come from different tables or passages of the source.

CNC(=O)CSP(=S)(OC)OC [Cygon, dimethoate]
time to lose 50 percent of its pest control power (mixed in water of pH 9): 48 min
time to lose 50 percent of its pest control power (pH of 6): 720 min
